Reference: ChEMBL document CHEMBL3856233, “Identification of (R)-(2-Chloro-3-(trifluoromethyl)phenyl)(1-(5-fluoropyridin-2-yl)-4-methyl-6,7-dihydro-1H-imidazo[4,5-c]pyridin-5(4H)-yl)methanone (JNJ 54166060), a Small Molecule Antagonist of the P2X7 receptor” (J Med Chem, 2016)

Legend:
[1] = Clearance in Sprague-Dawley rat at 1 mg/kg, iv after 0.033 to 24 hrs by LC/MS/MS analysis; assay type: ADME, organism-based; details: in vivo
[2] = Clearance in Beagle dog at 1 mg/kg, iv after 0.033 to 24 hrs by LC/MS/MS analysis; assay type: ADME, organism-based, Canis lupus familiaris; details: in vivo
[3] = Cmax in Beagle dog at 5 mg/kg, po after 0.033 to 24 hrs by LC/MS/MS analysis; assay type: ADME, organism-based, Canis lupus familiaris; design: dose 5 mg/kg, route oral; details: in vivo
[4] = Cmax in cynomolgus monkey at 5 mg/kg, po after 0.033 to 24 hrs by LC/MS/MS analysis; assay type: ADME, organism-based, Macaca fascicularis; design: dose 5 mg/kg, route oral; details: in vivo
Rattus norvegicus = test: Toxicity in rat assessed as increase in total serum cholesterol at 125 to 250 mg/kg, po administered for 4 days followed by necropsy on day 5 post treatment by histological analysis; assay type: organism-based; details: in vivo, 96 h
[5] = Oral bioavailability in Beagle dog at 5 mg/kg after 0.033 to 24 hrs by LC/MS/MS analysis; assay type: ADME, organism-based, Canis lupus familiaris; details: in vivo
[6] = Volume of distribution at steady state in cynomolgus monkey at 1 mg/kg, iv after 0.033 to 24 hrs by LC/MS/MS analysis; assay type: ADME, organism-based, Macaca fascicularis; details: in vivo, read-out: Vdss
CYP3A4 [7] = molecular target: T1, CYP3A4 (Homo sapiens, UniProt P08684); test: Inhibition of CYP3A4 in human liver microsomes using midazolam as substrate assessed as reduction in 1-OH-midazolam formation at 5 uM by LC/MS/MS analysis; assay type: ADME; details: probe midazolam
[8] = Half life in Beagle dog at 1 mg/kg, iv by LC/MS/MS analysis; assay type: ADME, organism-based, Canis lupus familiaris; details: in vivo
[9] = Solubility of compound in phosphate buffer at pH 2 at room temperature after 3 days
[10] = Permeability from apical to basolateral side in human Caco2 cells at 10 uM after 60 mins by LC/MS/MS analysis; assay type: ADME, cell-based; details: Caco-2, read-out: permeability
CYP3A4 [11] = molecular target: T1, CYP3A4; test: Inhibition of CYP3A4 in human liver microsomes using midazolam as substrate assessed as reduction in 1-OH-midazolam formation at 0.625 uM by LC/MS/MS analysis; assay type: ADME; details: probe midazolam
[12] = Protein binding in human plasma at 1 uM after 6 hrs by LC/MS/MS based equilibrium dialysis method; assay type: ADME, cell-free; details: read-out: PPB (converted)
[13] = Protein binding in mouse plasma at 1 uM after 6 hrs by LC/MS/MS analysis; assay type: ADME, cell-free; details: read-out: PPB (converted)
[14] = Protein binding in rat plasma at 1 uM after 6 hrs by LC/MS/MS based equilibrium dialysis method; assay type: ADME, cell-free; details: read-out: PPB (converted)
P2X purinoceptor 7 = molecular target: T2, P2X purinoceptor 7 (Mus musculus, UniProt Q9Z1M0); test: Antagonist activity at P2X7 receptor in LPS-stimulated mouse whole blood assessed as inhibition of Bz-ATP-induced IL-1beta release incubated for 30 mins after LPS stimulation for 1 hr followed by agonist addition measured after […] by ELISA; assay type: tissue-based
T2 sequence (Q9Z1M0 whole entry): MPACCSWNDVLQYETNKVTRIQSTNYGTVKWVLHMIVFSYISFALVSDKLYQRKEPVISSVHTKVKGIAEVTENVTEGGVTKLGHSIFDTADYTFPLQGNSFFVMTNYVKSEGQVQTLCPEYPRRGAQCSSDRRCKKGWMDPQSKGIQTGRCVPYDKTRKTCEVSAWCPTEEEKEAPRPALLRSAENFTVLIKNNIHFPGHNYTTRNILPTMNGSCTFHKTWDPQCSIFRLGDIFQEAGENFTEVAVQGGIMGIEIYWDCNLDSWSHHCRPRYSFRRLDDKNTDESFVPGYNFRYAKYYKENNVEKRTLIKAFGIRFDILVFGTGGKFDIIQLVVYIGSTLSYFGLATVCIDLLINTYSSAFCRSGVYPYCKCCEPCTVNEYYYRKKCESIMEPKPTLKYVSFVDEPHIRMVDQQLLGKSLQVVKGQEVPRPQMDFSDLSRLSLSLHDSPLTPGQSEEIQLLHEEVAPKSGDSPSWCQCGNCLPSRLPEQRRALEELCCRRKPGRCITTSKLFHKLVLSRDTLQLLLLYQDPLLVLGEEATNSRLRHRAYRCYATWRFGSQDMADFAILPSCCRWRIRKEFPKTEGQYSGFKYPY

T1 sequence (P08684 whole entry): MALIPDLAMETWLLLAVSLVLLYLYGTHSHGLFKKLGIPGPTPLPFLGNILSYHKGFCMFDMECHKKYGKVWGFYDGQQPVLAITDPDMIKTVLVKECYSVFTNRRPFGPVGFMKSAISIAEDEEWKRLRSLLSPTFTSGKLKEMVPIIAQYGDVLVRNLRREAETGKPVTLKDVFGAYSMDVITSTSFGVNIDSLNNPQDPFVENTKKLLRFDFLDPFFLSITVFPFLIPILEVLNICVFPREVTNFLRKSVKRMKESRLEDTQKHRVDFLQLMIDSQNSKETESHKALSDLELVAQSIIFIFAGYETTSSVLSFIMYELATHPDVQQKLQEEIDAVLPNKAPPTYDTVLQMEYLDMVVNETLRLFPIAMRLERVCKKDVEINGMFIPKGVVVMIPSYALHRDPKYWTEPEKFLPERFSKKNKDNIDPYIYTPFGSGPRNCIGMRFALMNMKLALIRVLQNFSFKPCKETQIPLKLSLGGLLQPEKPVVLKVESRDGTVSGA

clearance [1]: 30 mL/min/kg | clearance [2]: 5.5 mL/min/kg | Cmax [3]: 1250 ng/mL | Cmax [4]: 389 ng/mL | bioavailability [5]: > 100% | Vd [6]: 2.1 L/kg | inhibition at 5 µM (CYP3A4 [7]): 63% | half-life [8]: 11.9 h | solubility at 72 h [9]: > 400 µM | Papp A→B at 1 h, 10 µM [10]: 65 ×10⁻⁶ cm/s | inhibition at 0.625 µM (CYP3A4 [11]): 29% | fraction unbound at 6 h, 1 µM [12]: 0.055 | fraction unbound at 6 h, 1 µM [13]: 0.045 | fraction unbound at 6 h, 1 µM [14]: 0.051 | IC50 (P2X purinoceptor 7): 0.16 µM
SMILES: C[C@@H]1c2ncn(-c3ccc(F)cn3)c2CCN1C(=O)c1cccc(C(F)(F)F)c1Cl
Activity (Rattus norvegicus): Toxic
